Our source for the IC50 values is patent US6583146B1, “Thiazolopyrimidine compounds, its production and use” (Takeda Chemical Industries, Ltd., priority 1999, dated 2003).

This assay addresses T1, human adenosine A3 receptor (Homo sapiens, UniProt P0DMS8).
T1 construct: expressed in transfected cells; membrane fraction used
T1 sequence (P0DMS8 1-318): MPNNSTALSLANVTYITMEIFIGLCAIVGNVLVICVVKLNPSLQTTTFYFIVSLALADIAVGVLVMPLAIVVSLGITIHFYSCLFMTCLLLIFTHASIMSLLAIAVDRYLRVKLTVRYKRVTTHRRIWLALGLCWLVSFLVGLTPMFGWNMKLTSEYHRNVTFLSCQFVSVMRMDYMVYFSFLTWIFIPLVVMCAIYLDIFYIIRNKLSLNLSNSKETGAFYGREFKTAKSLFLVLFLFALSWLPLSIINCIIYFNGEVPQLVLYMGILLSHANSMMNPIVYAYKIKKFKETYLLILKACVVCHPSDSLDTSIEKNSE
Nature of the assay: Binding assays with adenosine A3 receptor ([3H]-NECA displacement, A3AR/CHO cell membranes). The following applies: [3H]-NECA as ligand; 100 μg/mL membranes of CHO cells expressing human adenosine A3 receptor; 1 hour at room temperature; read-out: IC50 (concentration that inhibits 50% specific binding of [3H]-NECA to the membrane). The method, then:
The following procedures in this Example were carried out according to the methods described in Molecular Cloning —Cold Spring Harbor Laboratory (1989) or protocol specified by manufacturers.
Cloning of the human adenosine A3 receptor gene was carried out by the polymerase chain reaction (PCR) from human brain cDNA. Using 1 ng of brain cDNA (Quick-Clone cDNA, TOYOBO, Osaka) as template, PCR was performed in DNA Thermal Cycler 480 (Perkin Elmer) (reaction conditions: 35 cycles of 1 min at 95° C., 1 min at 66° C., and 2 min at 75° C.) by mixing primers (50 pmol each),
5′-[…]-3′ [Sequence No. 1] and 5′-[…]-3′ [Sequence No. 2], which were designed referring to nucleotide sequence of adenosine A3 receptor gene reported by Salvatore et. al., (Proc. Natl. Acad. Sci. U. S. A., 90:10365-10369, 1993) and TaKaRa LA PCR Kit Ver.2 (TaKaRa Shuzo Co. Ltd., Kyoto). The PCR product was electrophoresed and 1.0 kb DNA fragment was recovered. The DNA fragment encoding adenosine A3 receptor was cloned using Original TA Cloning Kit (FUNAKOSHI, Tokyo).
Thus obtained plasmid was digested with Xba I (TaKaRa Shuzo Co. Ltd., Kyoto), blunted with T4 DNA polymerase (TaKaRa Shuzo Co. Ltd., Kyoto) and digested with Sal I (TaKaRa Shuzo Co. Ltd., Kyoto) to obtain adenosine A3 receptor gene fragment. […]

pIC50: −log10 of the molar value.

As for `COc1ccc(-c2c(-c3ccncc3)sc3nc(=O)cc(N)n23)cc1` [Example Compound 1, 5-Amino-3-(4-methoxyphenyl)-2-(4-pyridyl)-7H-thiazolo[3,2-a]pyrimidin-7-one], the pIC50 was 8.46.
